Results from patent publication US9416126B2, “Compounds inhibiting leucine-rich repeat kinase enzyme activity” (Merck Sharp & Dohme Corp., priority 2013, dated 2016).

These molecules were tested against LRRK2(G2019S mutation, GST-LRRK2(amino acids 970-2527)) (Homo sapiens (Human), UniProt Q5S007, G2019S) (assay: LRRK2 Km ATP LanthaScreen Assay). Conditions: Km ATP (184 μM ATP solution), G2019S LRRK2, mean IC50.
Type: biochemical
Protocol: Unless otherwise noted, all LRRK2 IC50 data presented in tables refers to the LRRK2 Km ATP LanthaScreen™ Assay that is described in the Biological Assay section.
The data presented for the 5 mM and Km ATP LanthaScreen™ Assay represents mean IC50 values based on several test results and may have reasonable. deviations depending on the specific conditions and reagents used. Reagents for the LRRK2 5 mM and Km ATP LanthaScreen™ Assay were purchased from Life Technologies Corporation.
LRRK2 Km ATP LanthaScreen™ Assay
a) 400 nl of a 1:2.15 serial dilution of test compound(98 μM top assay concentration) is spotted via Labcyte Echo to certain wells in a 384 well black, untreated plate. Control wells contain 400 nl of either DMSO or 400 nl of a known inhibitor in DMSO.
b) 10 μl of a 2.5 nM LRRK2(G2019S mutation, GST-LRRK2(amino acids 970-2527)) enzyme solution in 1× assay buffer(50 mM Tris pH 8.5, 10 mM MgCl2, 0.01% Brij-35, 1 mM EGTA, 2 mM DTT, 0.05 mM NaVO4) is added to all wells.
c) A 30 minute room temperature incubation is followed by addition of 10 μl of 800 nM fluorescein labeled LRRKtide peptide substrate and 184 μM ATP solution in 1× assay buffer to all wells.
d) After a 60 minute room temperature incubation, 20 μl of TR-FRET Dilution Buffer(Invitrogen PV3756B) containing 4 nM Tb-labeled anti-phospho LRRKtide antibody and 20 mM EDTA is added to all wells.
e) Plates are incubated at room temperature for 1 hour and read on an Envision™ multi-mode plate reader with LanthaScreen™ settings. Results are analysed using Assay Data Analyzer.

Sequence of LRRK2(G2019S mutation, GST-LRRK2(amino acids 970-2527)) (Q5S007 970-2527 G2019S): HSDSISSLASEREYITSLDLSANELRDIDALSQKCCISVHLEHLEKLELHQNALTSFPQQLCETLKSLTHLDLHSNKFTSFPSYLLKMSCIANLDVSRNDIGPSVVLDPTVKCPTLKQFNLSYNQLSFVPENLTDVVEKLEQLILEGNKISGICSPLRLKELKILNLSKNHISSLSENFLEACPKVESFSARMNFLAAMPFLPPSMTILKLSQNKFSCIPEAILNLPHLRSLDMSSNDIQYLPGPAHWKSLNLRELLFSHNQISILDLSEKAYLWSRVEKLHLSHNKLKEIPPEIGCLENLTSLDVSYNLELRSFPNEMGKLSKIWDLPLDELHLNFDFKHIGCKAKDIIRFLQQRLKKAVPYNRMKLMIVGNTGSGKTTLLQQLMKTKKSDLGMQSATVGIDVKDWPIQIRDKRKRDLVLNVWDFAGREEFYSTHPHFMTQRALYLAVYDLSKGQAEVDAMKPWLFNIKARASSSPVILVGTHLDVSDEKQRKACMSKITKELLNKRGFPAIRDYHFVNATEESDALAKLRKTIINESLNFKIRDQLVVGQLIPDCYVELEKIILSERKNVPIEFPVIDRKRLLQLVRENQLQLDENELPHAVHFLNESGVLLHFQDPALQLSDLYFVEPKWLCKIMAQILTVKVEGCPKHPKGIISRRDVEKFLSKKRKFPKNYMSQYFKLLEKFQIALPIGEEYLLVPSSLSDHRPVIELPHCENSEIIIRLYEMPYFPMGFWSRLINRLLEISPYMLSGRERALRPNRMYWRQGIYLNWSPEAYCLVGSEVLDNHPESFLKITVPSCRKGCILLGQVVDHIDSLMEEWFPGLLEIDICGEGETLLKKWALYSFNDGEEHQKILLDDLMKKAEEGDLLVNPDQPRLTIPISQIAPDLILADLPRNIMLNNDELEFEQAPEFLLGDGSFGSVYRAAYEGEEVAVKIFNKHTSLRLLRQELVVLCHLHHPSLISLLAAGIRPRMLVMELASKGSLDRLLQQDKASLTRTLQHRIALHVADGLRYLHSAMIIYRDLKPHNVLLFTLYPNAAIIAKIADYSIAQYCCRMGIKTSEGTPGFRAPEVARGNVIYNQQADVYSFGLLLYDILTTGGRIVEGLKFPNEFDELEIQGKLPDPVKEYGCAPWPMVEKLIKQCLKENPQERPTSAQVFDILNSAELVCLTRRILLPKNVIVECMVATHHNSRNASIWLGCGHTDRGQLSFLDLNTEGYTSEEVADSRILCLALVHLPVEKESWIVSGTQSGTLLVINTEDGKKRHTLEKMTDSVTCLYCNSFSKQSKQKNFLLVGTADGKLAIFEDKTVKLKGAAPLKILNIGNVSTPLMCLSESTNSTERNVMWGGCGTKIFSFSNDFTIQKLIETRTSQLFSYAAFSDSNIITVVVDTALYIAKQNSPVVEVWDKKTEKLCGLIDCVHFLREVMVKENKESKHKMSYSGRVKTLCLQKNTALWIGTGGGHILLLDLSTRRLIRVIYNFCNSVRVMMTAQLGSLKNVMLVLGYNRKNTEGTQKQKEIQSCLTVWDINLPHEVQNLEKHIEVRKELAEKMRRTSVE

Cn1cc(-c2ccc3[nH]nc(-c4cc(N5CCN(C6CC6)CC5)ncn4)c3c2)cn1 [Example A2] and CN1CCN(c2cc(-c3n[nH]c4ccc(-c5cnn(C)c5)cc34)ncn2)CC1 [Example A6] are within 1.5-fold of each other in IC50: 2.62 nM for the first, 2.85 nM for the second.

Cn1cc(-c2ccc3[nH]nc(-c4cc(N5CCOC6(CC6)C5)ncn4)c3c2)cn1 [Example A4] and Cn1cc(-c2ccc3[nH]nc(-c4cc(N5CCNC(=O)C5)ncn4)c3c2)cn1 [Example A14] are within 1.5-fold of each other in IC50: 2.01 nM for the first, 2.84 nM for the second.

First: CN1CCN(c2cc(-c3n[nH]c4ccc(-c5cnn(C)c5)cc34)ncn2)CC1=O [Example A5]
Second: CC(=O)N1CCN(c2cc(-c3n[nH]c4ccc(-c5cnn(C)c5)cc34)ncn2)CC1 [Example A13]
The IC50 of the first is 1.6-fold higher: 4.91 nM for the first, 3.15 nM for the second.

Compared with COCCNc1cc(-c2n[nH]c3ccc(-c4cnn(C)c4)cc23)ncn1 [Example A7], COCCOC1CCN(c2cc(-c3n[nH]c4ccc(-c5cnn(C)c5)cc34)ncn2)CC1 [Example A9] is 8-fold lower in IC50: 15 nM for the first, 1.87 nM for the second. The second is the more potent here.

First: Cn1cc(-c2ccc3[nH]nc(-c4cc(N5CC6CCC(C5)O6)ncn4)c3c2)cn1 [Example A10]
Second: C[C@@H]1CN(c2cc(-c3n[nH]c4ccc(-c5cnn(C)c5)cc34)ncn2)C[C@H](C)O1 [Example A11]
The IC50 of the first is 3.7-fold higher: 5.18 nM for the first, 1.4 nM for the second.

Compared with COC1CCN(c2cc(-c3n[nH]c4ccc(-c5cnn(C)c5)cc34)ncn2)CC1 [Example A12], CC(C)N1CCN(c2cc(-c3n[nH]c4ccc(-c5cnn(C)c5)cc34)ncn2)CC1 [Example A15] is 2.8-fold lower in IC50: 2.04 nM for the first, 0.73 nM for the second.

CO[C@H]1CN(c2cc(-c3n[nH]c4ccc(OC(C)C)cc34)ncn2)C[C@@H]1O [Example D1] and CO[C@@H]1CCN(c2cc(-c3n[nH]c4ccc(OC(C)C)cc34)ncn2)C1 [Example D30] are within 1.5-fold of each other in IC50: 9.9 nM for the first, 7.47 nM for the second.

First: CC(C)Oc1ccc2[nH]nc(-c3cc(N4CCOC(C)(C)C4)ncn3)c2c1 [Example D3]
Second: CC(C)Oc1ccc2[nH]nc(-c3cc(N4CCOC5(CC5)C4)ncn3)c2c1 [Example D12]
The IC50 of the first is 1.6-fold higher: 6.37 nM for the first, 4.04 nM for the second. The second is the more potent here.

CC(C)Oc1ccc2[nH]nc(-c3cc(N4CC[S+]([O-])CC4)ncn3)c2c1 [Example D4] and CC(C)Oc1ccc2[nH]nc(-c3cc(N4CCNCC4)ncn3)c2c1 [Example D18] are within 1.5-fold of each other in IC50: 11.5 nM for the first, 12.4 nM for the second.

First: CC(C)Oc1ccc2[nH]nc(-c3cc(N4CCC(F)(F)CC4)ncn3)c2c1 [Example D5]
Second: CC(C)Oc1ccc2[nH]nc(-c3cc(N4CCC5(CCCO5)CC4)ncn3)c2c1 [Example D49]
The IC50 of the first is 3.6-fold higher: 14.8 nM for the first, 4.13 nM for the second.

CC(C)Oc1ccc2[nH]nc(-c3cc(N4CCN(S(C)(=O)=O)CC4)ncn3)c2c1 [Example D7] and CC(C)Oc1ccc2[nH]nc(-c3cc(N4CCN(S(=O)(=O)C5CC5)CC4)ncn3)c2c1 [Example D23] are within 1.5-fold of each other in IC50: 7.99 nM for the first, 5.51 nM for the second.

Going from CC(C)Oc1ccc2[nH]nc(-c3cc(N4CC5CCC(C4)O5)ncn3)c2c1 [Example D8] to CC(C)Oc1cc2c(-c3cc(N4CC5CCC(C4)O5)ncn3)n[nH]c2cc1F [Example D47], the IC50 falls from 29.2 nM to 14.6 nM (2-fold).

Going from CC(C)Oc1ccc2[nH]nc(-c3cc(N4CCN(C)C(=O)C4)ncn3)c2c1 [Example D9] to CCN1CCN(c2cc(-c3n[nH]c4ccc(OC(C)C)cc34)ncn2)CC1=O [Example D28], the IC50 falls from 11.2 nM to 5.6 nM (2-fold). The second is the more potent here.

First: CC(C)Oc1ccc2[nH]nc(-c3cc(N4CCN(C5CC5)CC4)ncn3)c2c1 [Example D10]
Second: CC(C)Oc1ccc2[nH]nc(-c3cc(N4CCN(C(=O)C5CC5)CC4)ncn3)c2c1 [Example D22]
The IC50 of the first is 2-fold higher: 8.28 nM for the first, 4.15 nM for the second. The second is the more potent here.

[2H]C1([2H])OC([2H])([2H])C([2H])([2H])N(c2cc(-c3n[nH]c4ccc(OC(C)C)cc34)ncn2)C1([2H])[2H] [Example D11] and CC(C)Oc1ccc2[nH]nc(-c3cc(N4CC[C@@H](N)C4)ncn3)c2c1 [Example D43] are within 1.5-fold of each other in IC50: 7.12 nM for the first, 8.78 nM for the second.

First: CC(C)Oc1ccc2[nH]nc(-c3cc(N4CCOCC4C)ncn3)c2c1 (stereo not drawn) [Example D13]
Second: CC(C)Oc1cc2c(-c3cc(N4CCOCC4C)ncn3)n[nH]c2cc1F (stereo not drawn) [Example D40]
The IC50 of the first is 3.6-fold higher: 19.8 nM for the first, 5.54 nM for the second.

Going from CCCN1CCN(c2cc(-c3n[nH]c4ccc(OC(C)C)cc34)ncn2)CC1 [Example D14] to CCC(=O)N1CCN(c2cc(-c3n[nH]c4ccc(OC(C)C)cc34)ncn2)CC1 [Example D53], the IC50 falls from 8.14 nM to 4.26 nM (1.9-fold).

First: COCCNc1cc(-c2n[nH]c3ccc(OC(C)C)cc23)ncn1 [Example D16]
Second: COCCN(C)c1cc(-c2n[nH]c3ccc(OC(C)C)cc23)ncn1 [Example D19]
The IC50 of the first is 2.5-fold lower: 26.3 nM for the first, 66.5 nM for the second.

CC(C)Oc1ccc2[nH]nc(-c3cc(N4CCN(C(C)C)CC4)ncn3)c2c1 [Example D17] and CC(C)Oc1ccc2[nH]nc(-c3cc(N4CCN(C(C)C)C(=O)C4)ncn3)c2c1 [Example D29] are within 1.5-fold of each other in IC50: 7.68 nM for the first, 5.28 nM for the second.

Going from CC(C)Oc1ccc2[nH]nc(-c3cc(N4CCO[C@@H](C)C4)ncn3)c2c1 [Example D20] to CC(C)Oc1ccc2[nH]nc(-c3cc(N4CC[C@H](N)C4)ncn3)c2c1 [Example D44], the IC50 falls from 21.4 nM to 6.68 nM (3.2-fold). The second is the more potent here.

COCCN1CCN(c2cc(-c3n[nH]c4ccc(OC(C)C)cc34)ncn2)CC1=O [Example D21] and CCCN1CCN(c2cc(-c3n[nH]c4ccc(OC(C)C)cc34)ncn2)CC1=O [Example D34] are within 1.5-fold of each other in IC50: 5.59 nM for the first, 4.39 nM for the second.

Going from CC(C)Oc1cc2c(-c3cc(N4CCOCC4)ncn3)n[nH]c2cc1F [Example D26] to CC(C)Oc1cc2c(-c3cc(N4CCO[C@@H](C)C4)ncn3)n[nH]c2cc1F [Example D38], the IC50 rises from 2.39 nM to 5.01 nM (2.1-fold).

CC(C)Oc1ccc2[nH]nc(-c3cc(N4C=CSCC4)ncn3)c2c1 [Example D27] and CO[C@H]1CCN(c2cc(-c3n[nH]c4ccc(OC(C)C)cc34)ncn2)C1 [Example D31] are within 1.5-fold of each other in IC50: 6.08 nM for the first, 8.79 nM for the second.

CC(C)Oc1ccc2[nH]nc(-c3cc(N4CCN(CCF)C(=O)C4)ncn3)c2c1 [Example D33] and CCCN1CCN(c2cc(-c3n[nH]c4cc(F)c(OC(C)C)cc34)ncn2)CC1=O [Example D66] are within 1.5-fold of each other in IC50: 3.3 nM for the first, 2.77 nM for the second.

First: CC(C)Oc1cc2c(-c3cc(N4C[C@H](F)[C@@H](F)C4)ncn3)n[nH]c2cc1F [Example D35]
Second: CC(C)Oc1cc2c(-c3cc(N4CC[C@@H](N)C4)ncn3)n[nH]c2cc1F [Example D58]
The IC50 of the first is 1.5-fold lower: 4.78 nM for the first, 7.3 nM for the second.

CCN1CCN(c2cc(-c3n[nH]c4cc(F)c(OC(C)C)cc34)ncn2)CC1=O [Example D36] and CCN1CCN(c2cc(-c3n[nH]c4cc(F)c(OC(C)C)cc34)ncn2)CC1 [Example D46] are within 1.5-fold of each other in IC50: 4.16 nM for the first, 2.97 nM for the second.

Going from CC(C)Oc1cc2c(-c3cc(N4CCNC(=O)C4)ncn3)n[nH]c2cc1F [Example D37] to CC(C)Oc1cc2c(-c3cc(N4CC[C@H](N)C4)ncn3)n[nH]c2cc1F [Example D59], the IC50 rises from 2.89 nM to 10.4 nM (3.6-fold). The first is the more potent here.

First: CC(C)Oc1cc2c(-c3cc(N4CCO[C@H](C)C4)ncn3)n[nH]c2cc1F [Example D39]
Second: CC(C)Oc1cc2c(-c3cc(N4CCN(C)[C@@H](C)C4)ncn3)n[nH]c2cc1F [Example D50]
The IC50 of the first is 2.4-fold higher: 2.87 nM for the first, 1.2 nM for the second. The second is the more potent here.

CC(C)Oc1ccc2[nH]nc(-c3cc(N4C[C@H](O)[C@@H](O)[C@@H]4C)ncn3)c2c1 [Example D42] and CC(C)Oc1ccc2[nH]nc(-c3cc(N4C[C@H](O)[C@@H](N)[C@@H]4C)ncn3)c2c1 [Example D55] are within 1.5-fold of each other in IC50: 18.1 nM for the first, 14.4 nM for the second.

CC(C)Oc1cc2c(-c3cc(N4CCN(C5CC5)CC4)ncn3)n[nH]c2cc1F [Example D45] and CC(C)Oc1cc2c(-c3cc(N4CCN(C(=O)C5CC5)CC4)ncn3)n[nH]c2cc1F [Example D65] are within 1.5-fold of each other in IC50: 3.99 nM for the first, 2.98 nM for the second.

CC(C)Oc1cc2c(-c3cc(N4CCN(C)[C@H](C)C4)ncn3)n[nH]c2cc1F [Example D51] and CC(C)Oc1cc2c(-c3cc(N4CCN(CCO)CC4)ncn3)n[nH]c2cc1F [Example D62] are within 1.5-fold of each other in IC50: 1.3 nM for the first, 1.65 nM for the second.

CC(C)Oc1ccc2[nH]nc(-c3cc(N4C[C@H](N)C[C@@H]4C)ncn3)c2c1 [Example D52] and CC(C)Oc1cc2c(-c3cc(N4C[C@H](N)C[C@@H]4C)ncn3)n[nH]c2cc1F [Example D60] are within 1.5-fold of each other in IC50: 11.1 nM for the first, 7.6 nM for the second.

Compared with CC(C)Oc1ccc2[nH]nc(-c3cc(N4C[C@@H]5C[C@H]4CO5)ncn3)c2c1 [Example D54], CC(C)Oc1cc2c(-c3cc(N4C[C@H](O)[C@@H](O)[C@@H]4C)ncn3)n[nH]c2cc1F [Example D57] is 2.6-fold higher in IC50: 5.94 nM for the first, 15.5 nM for the second. The first is the more potent here.

First: CC(C)Oc1cc2c(-c3cc(N4CCN(c5cnn(C)c5)CC4)ncn3)n[nH]c2cc1F [Example D56]
Second: CCC(=O)N1CCN(c2cc(-c3n[nH]c4cc(F)c(OC(C)C)cc34)ncn2)CC1 [Example D64]
The IC50 of the first is 2-fold lower: 2.19 nM for the first, 4.32 nM for the second.

First: CC(C)Oc1cc2c(-c3cc(N4C[C@H](O)[C@@H](N)[C@@H]4C)ncn3)n[nH]c2cc1F [Example D61]
Second: COCCOC1CCN(c2cc(-c3n[nH]c4cc(F)c(OC(C)C)cc34)ncn2)CC1 [Example D67]
The IC50 of the first is 5.6-fold higher: 11.7 nM for the first, 2.1 nM for the second.

Going from CC(C)Oc1cc2c(-c3cc(N4CCN(S(=O)(=O)C5CC5)CC4)ncn3)n[nH]c2cc1F [Example D63] to CCS(=O)(=O)N1CCN(c2cc(-c3n[nH]c4cc(F)c(OC(C)C)cc34)ncn2)CC1 [Example D68], the IC50 falls from 4.17 nM to 2.24 nM (1.9-fold).
